From US20250360235A1, “RADI[…] AND METHOD FOR RADIOLABELLING” (Telix Innovations SA, priority 2024, published 2025)

Test: Drug product stability against radiolysis with ascorbic acid
Format: physicochemical
Description: Table 1 to Table 5 show the results of various radiolabelling experiments on radiochemical purity and the chelation yield. The radiolabelling experiments in the tables are carried out as described in: • Example 1 for when the gallium-68 source is GE Liquid target generator and EZAG GalliaPharm generator; • Example 2 for when the gallium-68 source is IRE Galli Eo generator; • Example 3 for when the gallium-68 source is GE solid target generator;
However, the experiments were carried out with the amount of ascorbic acid as indicated in the Tables 1 to 5, and the activity as indicated in the Tables 1 to 5. Radiochemical purities were measured at various times (T0, T1, T4, T6) after the radiolabelled experiments have been conducted.
The kits of Example 1, Example 2 or Example 3, with amounts of ascorbic acid as set out in Table 7 were used in the experiments for the ascorbic acid bracketing matrix. Three strengths of [^68Ga]Ga-PSMA-11 will be tested, i.e. 50 mCi/ml, 7 mCi/ml and 1 mCi/ml. Radiochemical purity was determined at different time points (TO, T1, T4 or T6), as set out in Table 7.

With `O=C([O-])CN(CCN(CC(=O)[O-])Cc1cc(CCC(=O)NCCCCCC(=O)NCCCC[C@H](NC(=O)N[C@@H](CCC(=O)O)C(=O)O)C(=O)O)ccc1[O-])Cc1cc(CCC(=O)O)ccc1[O-].[68Ga+3].[OH3+]` [[^68Ga]PSMA-11, gallium-68 radiolabelled Glu-urea-Lys-HBED-CC (gozetotide or PSMA-11)] the “time for which stability is maintained” value (20 mg ascorbic acid, highest strength 48.3-51.9 mCi/mL (worst case), Table 8) was “up to 6 hours”, the “time for which the formulation is stabilized” value (25 mg ascorbic acid, Table 3) was “up to 4 hours” and the “time for which ascorbic acid is an effective radio-stabilizer / stability maintained” value (10-50 mg ascorbic acid, 458-560 mCi starting activity, 48.3-71.1 mCi/mL, Table 2) was “up to 6 hours”. The stability (18.75-31.25 mg ascorbic acid, 5.1-5.88 mCi/mL and 0.84-2.54 mCi/mL, Tables 9 and 10) was “stability of the [^68Ga]PSMA-11 is maintained”.
